{"source": "patent US20210228621A1", "about": "“COMPOSITION FOR SKIN WOUNDS” (SUMITOMO SEIKA CHEMICALS CO., LTD., priority 2018, published 2021)", "experiment": "CO concentration of the CO-containing compositions analyzed by gas chromatography", "type": "physicochemical", "conditions": "about 2 atm; for CO concentration of liquid phase obtained by actual measurement: solvent H2O; for CO concentration in liquid phase obtained by actual measurement: solvent carbomer aqueous solution; for CO concentration of IPM: solvent isopropyl myristate", "protocol": "(§1) Pure water (2.5 mL) was placed in a vial. (3 mL, produced by Maruemu Corporation), and the vial was sealed with a rubber stopper and an aluminum seal. Next, a gas (N2 balance) having an arbitrarily adjusted CO concentration was collected in a Tedlar bag (1 L, produced by AS ONE Corporation). The air in the gas phase in the vial was replaced with the gas in the Tedlar bag until pressure reached about 2 atm by using a gas-tight syringe (M-GAN500, produced by Ito Corporation). Subsequently, the resulting product was allowed to stand until CO in the gas phase was dissolved in the liquid phase to reach equilibrium.\nThe CO concentration of the compositions was analyzed by gas chromatography (GC-2014 FID produced by Shimadzu Corporation).\nas §1, with “Isopropyl myristate (IPM: Wako first grade, produced by Fujifilm Wako Pure” for “Pure”, “Chemical Corporation)” for “water”, “vial” for “vial.”, “(MS-GAN500,” for “(M-GAN500,”\nThe CO concentration of the obtained compositions was analyzed by gas chromatography (GC-2014 FID produced by Shimadzu Corporation). When the CO (%) in the gas phase in the Tedlar bag was 18%, the CO concentration of IPM was 1500 μM. When the CO (%) in the gas phase in the Tedlar bag was 100%, the CO concentration of IPM was 9000 μM.\nas §1, with “The carbomer aqueous solution” for “Pure water”, “vial” for “vial.”, “(MS-GAN500,” for “(M-GAN500,”\nas §1, with “The hydroxyethyl cellulose aqueous solution” for “Pure water”, “vial” for “vial.”, “(MS-GAN500,” for “(M-GAN500,”\nThe CO concentration of the obtained CO-containing compositions was analyzed by gas chromatography (GC-2014 FID produced by Shimadzu Corporation). When the CO (%) in the gas phase in the Tedlar bag was 100%, the CO concentration in the hydroxyethyl cellulose aqueous solution was 1500 μM.", "key": {"[1]": {"conditions": "CO in gas phase in Tedlar bag 8% (theoretical value)"}, "[2]": {"conditions": "CO in gas phase in Tedlar bag 100% (theoretical value)"}}}
{"smiles": "[C-]#[O+]", "note": "[CO, carbon monoxide]", "values": [{"measurement": "CO concentration of liquid phase obtained by actual measurement", "setting": "[1]", "value": 100, "unit": "µM"}, {"measurement": "CO concentration of liquid phase obtained by actual measurement", "setting": "CO in gas phase in Tedlar bag 34% (theoretical value)", "value": 500, "unit": "µM"}, {"measurement": "CO concentration of liquid phase obtained by actual measurement", "setting": "CO in gas phase in Tedlar bag 67% (theoretical value)", "value": 1000, "unit": "µM"}, {"measurement": "CO concentration of liquid phase obtained by actual measurement", "setting": "[2]", "value": 1500, "unit": "µM"}, {"measurement": "CO concentration in liquid phase obtained by actual measurement", "setting": "[1]", "value": 100, "unit": "µM"}, {"measurement": "CO concentration in liquid phase obtained by actual measurement", "setting": "CO in gas phase in Tedlar bag 35% (theoretical value)", "value": 500, "unit": "µM"}, {"measurement": "CO concentration in liquid phase obtained by actual measurement", "setting": "[2]", "value": 1500, "unit": "µM"}, {"measurement": "CO concentration in the hydroxyethyl cellulose aqueous solution", "setting": "solvent hydroxyethyl cellulose aqueous solution, CO in gas phase in Tedlar bag 100%", "value": 1500, "unit": "µM"}, {"measurement": "CO concentration of IPM", "setting": "CO in gas phase in Tedlar bag 18%", "value": 1500, "unit": "µM"}, {"measurement": "CO concentration of IPM", "setting": "CO in gas phase in Tedlar bag 100%", "value": 9000, "unit": "µM"}]}
